From ChEMBL document CHEMBL3259563, “The discovery of potent and selective non-steroidal glucocorticoid receptor modulators, suitable for inhalation” (Bioorg Med Chem Lett, 2014)

Experiments:
Glucocorticoid receptor [1] = target: T1, Glucocorticoid receptor (Homo sapiens, UniProt P04150)
T1 sequence (P04150 whole entry): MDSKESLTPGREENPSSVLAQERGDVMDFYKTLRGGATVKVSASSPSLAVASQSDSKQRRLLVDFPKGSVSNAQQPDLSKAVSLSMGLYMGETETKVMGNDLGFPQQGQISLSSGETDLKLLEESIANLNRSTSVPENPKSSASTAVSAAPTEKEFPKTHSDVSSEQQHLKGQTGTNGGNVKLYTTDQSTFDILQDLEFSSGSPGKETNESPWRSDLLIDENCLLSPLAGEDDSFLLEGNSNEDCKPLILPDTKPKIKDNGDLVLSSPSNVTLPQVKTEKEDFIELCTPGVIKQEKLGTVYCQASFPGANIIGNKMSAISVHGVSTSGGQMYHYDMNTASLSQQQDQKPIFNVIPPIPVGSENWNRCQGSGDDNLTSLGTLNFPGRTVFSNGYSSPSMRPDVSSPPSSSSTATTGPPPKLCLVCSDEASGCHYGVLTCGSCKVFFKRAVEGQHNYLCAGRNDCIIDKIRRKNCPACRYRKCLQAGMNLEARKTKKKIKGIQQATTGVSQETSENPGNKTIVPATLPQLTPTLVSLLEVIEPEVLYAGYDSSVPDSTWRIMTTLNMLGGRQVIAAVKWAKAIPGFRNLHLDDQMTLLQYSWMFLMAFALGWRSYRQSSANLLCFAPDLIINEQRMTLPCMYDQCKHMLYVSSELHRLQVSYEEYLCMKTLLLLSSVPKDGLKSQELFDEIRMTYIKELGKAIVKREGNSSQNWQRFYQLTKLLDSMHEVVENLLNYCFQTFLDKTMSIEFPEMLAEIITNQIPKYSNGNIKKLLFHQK
Description: Binding affinity to human glucocorticoid receptor by fluorescence polarization assay

[2] = Lipophilicity, log D of the compound at pH 7.4; format: physicochemical; settings: buffer
Glucocorticoid receptor [3] = target: T1, Glucocorticoid receptor; remark: listed apart in the source
Description: Agonist activity at glucocorticoid receptor in human Chago K1 cells assessed as gene transrepression by Lac-Z reporter gene assay

Glucocorticoid receptor [4] = target: T1, Glucocorticoid receptor; remark: listed apart in the source
Description: Agonist activity at glucocorticoid receptor in human PBMC assessed as inhibition of LPS-stimulated TNF-alpha release

Rattus norvegicus [5] = test: Antiinflammatory activity in rat assessed as inhibition of LPS-induced lung edema at 30 ug/kg, administered intratracheally 2 hrs prior to LPS challenge measured after 4 hrs relative to control; format: functional; settings: inhaled or nasal
Rattus norvegicus [6] = test: Antiinflammatory activity in rat assessed as inhibition of LPS-induced lung edema at 100 ug/kg, administered intratracheally 2 hrs prior to LPS challenge measured after 4 hrs relative to control; format: functional; settings: inhaled or nasal
Rattus norvegicus [7] = test: Antiinflammatory activity in rat assessed as inhibition of LPS-induced leukocyte influx to broncho-alveolar lavage fluid at 100 ug/kg, administered intratracheally 2 hrs prior to LPS challenge measured after 4 hrs relative to control; format: functional; settings: inhaled or nasal
Rattus norvegicus [8] = test: Antiinflammatory activity in rat assessed as inhibition of LPS-induced lung edema at 10 ug/kg, administered intratracheally 2 hrs prior to LPS challenge measured after 4 hrs relative to control; format: functional; settings: inhaled or nasal
Rattus norvegicus [9] = test: Antiinflammatory activity in rat assessed as inhibition of LPS-induced leukocyte influx to broncho-alveolar lavage fluid at 30 ug/kg, administered intratracheally 2 hrs prior to LPS challenge measured after 4 hrs relative to control; format: functional; settings: inhaled or nasal
Rattus norvegicus [10] = test: Antiinflammatory activity in rat assessed as inhibition of LPS-induced leukocyte influx to broncho-alveolar lavage fluid at 10 ug/kg, administered intratracheally 2 hrs prior to LPS challenge measured after 4 hrs relative to control; format: functional; settings: inhaled or nasal
Mus musculus = test: Antiinflammatory activity in mouse acute cigarette smoke model assessed as inhibition of neutrophil influx to broncho-alveolar lavage fluid at 30 ug/kg, administered intratracheally 30 mins prior to first cigarette smoke challenge every day for 4 days measured after 24 hrs post last cigarette smoke challenge relative to control; settings: inhaled or nasal

For `Cc1cc(C)c(S(=O)(=O)N[C@@H](C)CCc2ccccc2)c(C)c1`, which IC50 (Glucocorticoid receptor [1]) is on record?
Its IC50 is 55 nM.

Which IC50 (Glucocorticoid receptor [1]) does the source give for `Cc1cc(C)c(S(=O)(=O)N[C@@H](C)COc2c(C)cccc2C)c(C)c1` here?
The IC50 was 85 nM.

For `Cc1cc(C)c(S(=O)(=O)N[C@@H](C)COc2cccc3cnccc23)c(C)c1`, which logD [2] is on record?
Its logD is 4.1.

What about the IC50 (Glucocorticoid receptor [1]) of the same compound?
Its IC50 is 18 nM.

Which results are given for `Cc1cc(C)c(S(=O)(=O)N[C@@H](C)COc2cccc3ncccc23)c(C)c1`?
IC50 (Glucocorticoid receptor [3]): 960 nM; IC50 (Glucocorticoid receptor [1]): 240 nM

Which IC50 (Glucocorticoid receptor [3]) does the source give for `Cc1cc(C)c(S(=O)(=O)N[C@@H](C)CNc2cccc3[nH]ncc23)c(C)c1` here?
The IC50 was 760 nM.

With `Cc1cc(C)c(S(=O)(=O)N[C@@H](C)CNc2cccc3ncccc23)c(C)c1` as the compound, how does the IC50 (Glucocorticoid receptor [3]) read?
Its IC50 is 1800 nM.

With `Cc1cc(C)c(S(=O)(=O)N[C@@H](C)CNc2ccc3ncccc3c2)c(C)c1` as the compound, how does the IC50 (Glucocorticoid receptor [1]) read?
The IC50 was 10000 nM.

For `Cc1cc(C)c(S(=O)(=O)N[C@@H](C)CNc2ccc3cnccc3c2)c(C)c1`, which IC50 (Glucocorticoid receptor [1]) is on record?
The IC50 was 10000 nM.

Which IC50 (Glucocorticoid receptor [3]) does the source give for `Cc1cc(C)c(S(=O)(=O)N[C@@H](C)CNc2ccc(C)c3ncccc23)c(C)c1` here?
The IC50 was 1100 nM.

Which results are given for `Cc1cc(C)c(S(=O)(=O)N[C@@H](C)CNc2cccc3nc(C)ccc23)c(C)c1`?
IC50 (Glucocorticoid receptor [3]): 2200 nM; IC50 (Glucocorticoid receptor [1]): 160 nM

For `Cc1ccc(S(=O)(=O)N[C@@H](C)COc2cccc3ncccc23)c(C)c1`, which IC50 (Glucocorticoid receptor [1]) is on record?
The IC50 was 1600 nM.

For `C[C@@H](COc1cccc2ncccc12)NS(=O)(=O)c1c(Cl)cc(Cl)cc1Cl`, which IC50 (Glucocorticoid receptor [3]) is on record?
The IC50 was 2400 nM.

What about the IC50 (Glucocorticoid receptor [1]) of the same compound?
Its IC50 is 80 nM.

For `Cc1cc(Cl)cc(Cl)c1S(=O)(=O)N[C@@H](C)COc1cccc2ncccc12`, which IC50 (Glucocorticoid receptor [1]) is on record?
Its IC50 is 220 nM.

With `COc1ccccc1S(=O)(=O)N[C@@H](C)COc1cccc2ncccc12` as the compound, how does the IC50 (Glucocorticoid receptor [1]) read?
Its IC50 is > 10000 nM.

For `C[C@@H](COc1cccc2ncccc12)NS(=O)(=O)c1cccc(C#N)c1`, which IC50 (Glucocorticoid receptor [1]) is on record?
Its IC50 is 1800 nM.

With `C[C@@H](COc1cccc2ncccc12)NS(=O)(=O)c1ccccc1C#N` as the compound, how does the IC50 (Glucocorticoid receptor [1]) read?
The IC50 was > 10000 nM.

With `C[C@@H](COc1cccc2ncccc12)NS(=O)(=O)c1ccccc1` as the compound, how does the IC50 (Glucocorticoid receptor [1]) read?
Its IC50 is > 10000 nM.

For `Cc1ccc(S(=O)(=O)N[C@@H](C)COc2cccc3cnccc23)c(C)c1`, which IC50 (Glucocorticoid receptor [1]) is on record?
The IC50 was 410 nM.

What does the source list for `Cc1nn(C2CCCC2)c(C)c1S(=O)(=O)N[C@@H](C)COc1cccc2cnccc12`?
logD [2]: 3.5; IC50 (Glucocorticoid receptor [1]): 32 nM

For `Cc1cc(C)c(S(=O)(=O)N[C@@H](C)CNc2cccc3c2cnn3-c2ccc(F)nc2)c(C)c1`, which IC50 (Glucocorticoid receptor [4]) is on record?
The IC50 was 23 nM.

For `Cc1cccc(-n2ncc3c(NC[C@H](C)NS(=O)(=O)c4c(C)cc(C)cc4C)cccc32)c1`, which IC50 (Glucocorticoid receptor [3]) is on record?
Its IC50 is 6.6 nM.

What about the IC50 (Glucocorticoid receptor [4]) of the same compound?
The IC50 was 8.8 nM.

For `Cc1cc(C)c(S(=O)(=O)N[C@@H](C)CNc2cccc3c2cnn3-c2ccccc2)c(C)c1`, which IC50 (Glucocorticoid receptor [3]) is on record?
Its IC50 is 1.5 nM.

What about the IC50 (Glucocorticoid receptor [4]) of the same compound?
The IC50 was 1.6 nM.

Which results are given for `Cc1cc(C)c(S(=O)(=O)N[C@@H](C)CNc2cccc3c2cnn3-c2cncnc2)c(C)c1`?
IC50 (Glucocorticoid receptor [3]): 6.9 nM; IC50 (Glucocorticoid receptor [4]): 8.1 nM; IC50 (Glucocorticoid receptor [1]): 5.3 nM

With `Cc1cc(C)c(S(=O)(=O)N[C@@H](C)CNc2cccc3c2cnn3-c2cccnc2)c(C)c1` as the compound, how does the IC50 (Glucocorticoid receptor [3]) read?
The IC50 was 2.6 nM.

And the IC50 (Glucocorticoid receptor [4])?
The IC50 was 2 nM.

Which results are given for `Cc1cc(C)c(S(=O)(=O)N[C@@H](C)CNc2cccc3c2cnn3-c2ccc(Cl)cc2)c(C)c1`?
IC50 (Glucocorticoid receptor [3]): 3.7 nM; IC50 (Glucocorticoid receptor [4]): 13 nM; IC50 (Glucocorticoid receptor [1]): 3.4 nM

For `Cc1cc(C)c(S(=O)(=O)N[C@@H](C)CNc2cccc3c2cnn3-c2ccc(F)c(C)c2)c(C)c1`, which IC50 (Glucocorticoid receptor [3]) is on record?
The IC50 was 14 nM.

And the IC50 (Glucocorticoid receptor [4])?
Its IC50 is 23 nM.

And the IC50 (Glucocorticoid receptor [1])?
The IC50 was 4.1 nM.

For `Cc1ccc(-n2ncc3c(NC[C@H](C)NS(=O)(=O)c4c(C)cc(C)cc4C)cccc32)cc1`, which IC50 (Glucocorticoid receptor [3]) is on record?
Its IC50 is 4.5 nM.

What about the IC50 (Glucocorticoid receptor [4]) of the same compound?
Its IC50 is 12 nM.

Which IC50 (Glucocorticoid receptor [3]) does the source give for `Cc1cc(C)c(S(=O)(=O)N[C@H](CNc2cccc3c2cnn3-c2ccc(F)cc2)C(C)C)c(C)c1` here?
The IC50 was 12 nM.

And the IC50 (Glucocorticoid receptor [4])?
The IC50 was 2.1 nM.

What about the IC50 (Glucocorticoid receptor [1]) of the same compound?
Its IC50 is 35 nM.

With `Cc1cc(C)c(S(=O)(=O)N[C@@H](C)CNc2cccc3c2cnn3-c2cccc(F)c2)c(C)c1` as the compound, how does the IC50 (Glucocorticoid receptor [3]) read?
The IC50 was 6.1 nM.

What about the IC50 (Glucocorticoid receptor [4]) of the same compound?
Its IC50 is 28 nM.

Which IC50 (Glucocorticoid receptor [3]) does the source give for `COc1cccc(-n2ncc3c(NC[C@H](C)NS(=O)(=O)c4c(C)cc(C)cc4C)cccc32)c1` here?
Its IC50 is 41 nM.

Which IC50 (Glucocorticoid receptor [3]) does the source give for `Cc1cc(C)c(S(=O)(=O)N[C@@H](C)CCc2cccc3c2cnn3-c2ccc(F)cc2)c(C)c1` here?
The IC50 was 23 nM.

What about the IC50 (Glucocorticoid receptor [4]) of the same compound?
The IC50 was 12 nM.

With `Cc1nn(C2CCCC2)c(C)c1S(=O)(=O)N[C@@H](C)CNc1cccc2c1cnn2-c1ccc(F)cc1` as the compound, how does the IC50 (Glucocorticoid receptor [3]) read?
Its IC50 is 9.7 nM.

With `Cc1nn(C2CCCC2)c(C)c1S(=O)(=O)N[C@@H](C)CNc1cccc2c1cnn2-c1ccc(C#N)cc1` as the compound, how does the IC50 (Glucocorticoid receptor [3]) read?
The IC50 was 16 nM.

And the IC50 (Glucocorticoid receptor [4])?
The IC50 was 13 nM.

For `Cc1nn(C2CCCC2)c(C)c1S(=O)(=O)N[C@@H](C)CNc1cccc2c1cnn2-c1cncnc1`, which IC50 (Glucocorticoid receptor [3]) is on record?
The IC50 was 43 nM.

For `Cc1cc(C)c(S(=O)(=O)NC(C)CSc2cccc3c2cnn3-c2ccc(F)cc2)c(C)c1` (racemic), which IC50 (Glucocorticoid receptor [1]) is on record?
The IC50 was 7.7 nM.

For `Cc1cc(C)c(S(=O)(=O)NC(COc2cccc3c2cnn3-c2ccc(F)cc2)C(F)(F)F)c(C)c1` (racemic), which IC50 (Glucocorticoid receptor [3]) is on record?
Its IC50 is 14 nM.

What about the IC50 (Glucocorticoid receptor [4]) of the same compound?
The IC50 was 36 nM.

What about the IC50 (Glucocorticoid receptor [1]) of the same compound?
The IC50 was 3.8 nM.

What does the source list for `CCC(=O)O[C@]1(C(=O)SCF)[C@H](C)C[C@H]2[C@@H]3C[C@H](F)C4=CC(=O)C=C[C@]4(C)[C@@]3(F)[C@@H](O)C[C@@]21C` [FLUTICASONE PROPIONATE]?
inhibition in vivo at 0.03 mg/kg (Rattus norvegicus [5]): 78%; inhibition in vivo at 0.1 mg/kg (Rattus norvegicus [6]): 116%; inhibition in vivo at 0.1 mg/kg (Rattus norvegicus [7]): 94%; inhibition in vivo at 0.01 mg/kg (Rattus norvegicus [8]): 64%; inhibition in vivo at 0.03 mg/kg (Rattus norvegicus [9]): 92%; inhibition in vivo at 0.01 mg/kg (Rattus norvegicus [10]): 84%; inhibition in vivo at 0.03 mg/kg (Mus musculus): 0%
